Test results taken from patent US20180244653A1, “SELECTIVE ALPHA-7 NICOTINIC RECEPTOR AGONISTS AND METHODS FOR MAKING AND USING THEM” (THE REGENTS OF THE UNIVERSITY OF CALIFORNIA, priority 2015, published 2018).
Several values for one entry are separate records, joined by “and”; a condition that tells them apart may be missing. Equal values may be shown once. Entries after “also recorded” stand apart in the source; their conditions may differ. Read-outs that look alike come from different tables or passages of the source.

Columns and labels:
Experiment in all cases: FRET functional assay (agonist/antagonist) using LGIC-CNiFERs
Type in all cases: cell-based
α7-nAChRs = target: T1, α7-nAChRs (Homo sapiens, UniProt P36544); settings: for EC50: in presence of 10 μM PNU-120596, * partial agonist, read-out: Agonist EC50 ± SD, α7; for Functional properties at α7-nAChRs (agonist / antagonist): functional screening and characterization
T1 construct: expressed in transfected cells; host or cells: HEKtsA201 cells co-expressing TN-XXL
T1 sequence (P36544 23-502): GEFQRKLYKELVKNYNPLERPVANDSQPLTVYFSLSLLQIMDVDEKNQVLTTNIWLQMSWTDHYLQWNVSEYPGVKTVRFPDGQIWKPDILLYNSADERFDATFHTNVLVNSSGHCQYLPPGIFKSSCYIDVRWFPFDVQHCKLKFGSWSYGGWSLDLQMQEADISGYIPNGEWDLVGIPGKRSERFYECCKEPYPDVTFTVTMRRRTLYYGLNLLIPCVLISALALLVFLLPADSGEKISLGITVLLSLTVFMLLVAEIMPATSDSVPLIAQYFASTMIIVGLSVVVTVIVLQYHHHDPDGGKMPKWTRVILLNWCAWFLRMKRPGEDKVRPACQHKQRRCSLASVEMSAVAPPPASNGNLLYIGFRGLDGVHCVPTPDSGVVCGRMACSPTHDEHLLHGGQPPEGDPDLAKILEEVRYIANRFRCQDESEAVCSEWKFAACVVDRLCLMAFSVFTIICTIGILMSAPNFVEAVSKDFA
Description: (§1) Initially, the agonist properties of tested compounds were assessed directly. […] All α7-nAChR functional assays were performed in the presence of PNU-120596, an α7-nAChR positive allosteric modulator (PAM), to increase signal and delay the sensitization state of α7-nAChRs enabling the measurement of more prolonged FRET signals.^29 Compounds having agonist responses of >0.20 were determined for EC50, and compounds having inhibition fraction of >0.50 were determined for KA.^25 EC50>13.3 μM and KA>10 μM which are a screening concentration for agonist and antagonist, respectively were reported compounds not taken for further in the screening of receptor occupation and responses.
(§2) Agonist and antagonist elicited responses were characterized using the above CNiFER cell expressing Cys-loop ligand-gated ion channel (LGIC) receptors. […] A 96-well black, clear-bottom microplate (Greiner bio-one, Germany) was coated with poly-D-lysine (Sigma-Aldrich, St. Louis, Mo.) 50 μL/well for 30 min and washed out with Phosphate-Buffered Saline (PBS) (Corning, Cellgro, Manassas, Va.) before plating the cells. After plating and incubation at 37° C. for 1 day, the media was replaced with 100 μL of artificial cerebrospinal fluid (aCSF: 121 mM NaCl, 5 mM KCl, 26 mM NaHCO3, 1.2 mM NaH2PO4H2O, 10 mM glucose, 2.4 mM CaCl2, 1.3 mM MgSO4, 5 mM HEPES, pH 7.4) for 4032 and 5HT3A receptors, whereas 10 μM PNU-120596 (Tocris Bioscience, Bristol, UK) in aCSF with 30 min incubation at 37° C. was used for α7-nAChR. The tested compounds were prepared in aCSF for all receptors except α7-nAChR, where 10 μM PNU-120596, a positive allosteric modulator (PAM) was used. The prepared compounds were added in a separate 96-well polypropylene plate (Costar, Corning, N.Y.). Experiments were conducted at 37° C. using 436-nm excitation. Emitted light was collected at 485 nm and 528 nm. Basal fluorescence was recorded for 30 s, followed by addition of 50 μL of ligand (first addition). Measurements were made at 3.84 s intervals for 2 min to measure the agonistic effect. […] Agonist and antagonist properties were sequentially screened at the final concentration of 13.3 and 10 μM, respectively, which differed from the screening concentration from intact cell binding assay (10 μM).

5HT3A receptors = target: T2, 5HT3A receptors (Mus musculus, UniProt P23979); settings: for Functional properties at 5HT3A receptors (agonist / antagonist, type): functional screening and characterization
T2 construct: expressed in transfected cells; host or cells: HEK293 cells co-expressing TN-XXL
T2 sequence (P23979 24-489): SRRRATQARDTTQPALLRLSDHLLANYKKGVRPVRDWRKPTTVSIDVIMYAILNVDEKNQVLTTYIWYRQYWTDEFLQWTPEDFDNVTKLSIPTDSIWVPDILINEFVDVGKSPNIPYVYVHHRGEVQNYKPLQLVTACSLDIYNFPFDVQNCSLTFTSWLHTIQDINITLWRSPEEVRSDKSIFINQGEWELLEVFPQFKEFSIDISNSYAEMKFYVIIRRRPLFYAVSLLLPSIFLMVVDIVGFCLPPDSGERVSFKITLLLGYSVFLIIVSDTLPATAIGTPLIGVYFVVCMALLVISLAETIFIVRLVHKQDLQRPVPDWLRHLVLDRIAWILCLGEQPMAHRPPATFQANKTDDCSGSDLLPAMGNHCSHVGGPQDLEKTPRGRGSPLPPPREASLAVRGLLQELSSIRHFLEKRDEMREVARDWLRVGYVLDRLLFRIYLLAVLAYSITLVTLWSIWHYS
Description: as §1, §2

α4β2-nAChRs = target: T3, α4β2-nAChRs (Homo sapiens, UniProt P17787+P43681); settings: for Functional properties at α4β2-nAChRs (agonist / antagonist, type): functional screening and characterization
T3 construct: expressed in transfected cells; host or cells: HEKtsA201 cells co-expressing TN-XXL
T3 sequence (P43681 29-627 limits assumed): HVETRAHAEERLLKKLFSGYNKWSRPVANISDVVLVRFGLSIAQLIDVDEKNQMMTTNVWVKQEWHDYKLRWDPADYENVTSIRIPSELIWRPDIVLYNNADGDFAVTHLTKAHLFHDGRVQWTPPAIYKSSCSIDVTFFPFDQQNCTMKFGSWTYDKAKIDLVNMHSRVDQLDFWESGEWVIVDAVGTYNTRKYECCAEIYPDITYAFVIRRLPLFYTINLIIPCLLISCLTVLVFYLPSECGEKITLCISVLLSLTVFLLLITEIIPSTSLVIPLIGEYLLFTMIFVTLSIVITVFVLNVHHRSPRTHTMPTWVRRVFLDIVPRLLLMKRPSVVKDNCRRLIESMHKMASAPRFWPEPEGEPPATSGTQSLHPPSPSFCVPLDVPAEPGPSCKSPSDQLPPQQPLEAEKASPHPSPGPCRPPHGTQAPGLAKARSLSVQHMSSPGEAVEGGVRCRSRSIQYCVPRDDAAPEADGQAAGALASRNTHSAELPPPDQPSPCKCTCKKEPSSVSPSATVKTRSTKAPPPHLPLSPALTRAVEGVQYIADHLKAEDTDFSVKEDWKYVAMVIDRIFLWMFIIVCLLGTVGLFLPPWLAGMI
T3 sequence (P17787 26-502): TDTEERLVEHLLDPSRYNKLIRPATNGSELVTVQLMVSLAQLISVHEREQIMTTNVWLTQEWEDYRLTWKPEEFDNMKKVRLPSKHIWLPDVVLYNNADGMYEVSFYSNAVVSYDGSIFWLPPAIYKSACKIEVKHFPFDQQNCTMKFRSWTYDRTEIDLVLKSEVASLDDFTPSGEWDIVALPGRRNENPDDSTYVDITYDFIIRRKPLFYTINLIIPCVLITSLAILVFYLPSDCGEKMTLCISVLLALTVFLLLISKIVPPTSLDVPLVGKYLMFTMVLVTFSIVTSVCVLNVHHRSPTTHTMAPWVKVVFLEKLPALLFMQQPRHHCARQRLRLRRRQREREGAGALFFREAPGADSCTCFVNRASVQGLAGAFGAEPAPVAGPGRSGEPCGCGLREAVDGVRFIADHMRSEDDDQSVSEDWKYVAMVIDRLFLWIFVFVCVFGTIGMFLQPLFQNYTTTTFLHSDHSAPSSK
Description: as §1, §2

[1] = >10 = did not pass initial screen
[2] = read-out: Antagonist KA ± SD, α4β2
[3] = competitive antagonist (^C), >10 = did not pass initial screen, vs 5-HT, read-out: Antagonist KA ± SD, 5HT3A
[4] = read-out: Agonist EC50 ± SD, 5HT3A
[5] = competitive antagonist (^C), >10 = did not pass initial screen, vs (±)-epibatidine, read-out: Antagonist KA ± SD, α4β2
[6] = competitive antagonist (^C), >10 = did not pass initial screen, vs (±)-epibatidine, read-out: Antagonist KA ± SD, α7
[7] = non-competitive antagonist (^NC), read-out: Antagonist KA ± SD, α7, non-competitive
[8] = Antagonist KA ± SD, α4β2, competitive antagonist (^C), >10 = did not pass initial screen, vs (±)-epibatidine

| SMILES | EC50 (α7-nAChRs; [1]) | Functional properties at 5HT3A receptors (agonist / antagonist, type) (5HT3A receptors) | Kd (α4β2-nAChRs; [2]) | Kd (5HT3A receptors; [3]) | EC50 (5HT3A receptors; [4]) | also measured |
| --- | --- | --- | --- | --- | --- | --- |
| c1cc2cc(-c3cn(CCCCN4CCOCC4)nn3)ccc2[nH]1 [IND6, 5-(1-(4-(Morpholin-4-yl)butyl)-1H-1,2,3-triazol-4-yl)-1H-indole] | 12.2 µM |  |  |  |  |  |
| c1cc2cc(-c3cn(CCN4CCNCC4)nn3)ccc2[nH]1 [IND9, 5-(1-(2-(Piperazin-1-yl)ethyl)-1H-1,2,3-triazol-4-yl)-1H-indole] |  | mix-competitive antagonist |  |  |  |  |
| c1cc2cc(-c3cn(C4CCCNC4)nn3)ccc2[nH]1 (centres unmarked) [IND10, 5-(1-(Piperidin-3-yl)-1H-1,2,3-triazol-4-yl)-1H-indole] | 0.66 µM | mix-competitive antagonist |  |  |  |  |
| c1cc2cc(-c3cn(CCN4CCCCCC4)nn3)ccc2[nH]1 [IND14, 5-(1-(2-(Azepan-1-yl)ethyl)-1H-1,2,3-triazol-4-yl)-1H-indole] | 0.78 µM | competitive antagonism |  |  |  |  |
| c1cc2c(cc1-c1cn(CCN3CCCCC3)nn1)OCO2 [PPRD1, 1-(2-(4-(Benzo-1,3-dioxol-5-yl)-1,2,3-triazol-1-yl)ethyl)piperidine] | 7.4 ± 0.7 µM |  | > 10 µM | > 10 µM | > 10 µM |  |
| Nc1ccc(-c2cn(CCN3CCCCC3)nn2)cc1 [PPRD2, 1-(2-(4-Aminophenyl-1,2,3-triazol-1-yl)ethyl)piperidine] | 0.38 µM |  |  | >10 µM |  | Kd (α4β2-nAChRs; [5]): >10 µM; EC50 (5HT3A receptors; * partial agonist, >10 = did not pass initial screen, read-out: Agonist EC50 ± SD, 5HT3A): > 10 µM |
| COc1ccc(-c2cn(CCN3CCCCC3)nn2)cc1 [PPRD3, 1-(2-(4-(4-Methoxyphenyl)-1,2,3-triazol-1-yl)ethyl)piperidine] | 15 µM |  | > 10 µM | > 10 µM | > 10 µM | Functional properties at α7-nAChRs (agonist / antagonist) (α7-nAChRs): partial agonists |
| Cc1ccc(-c2cn(CCN3CCCCC3)nn2)cc1 [PPRD4, 1-(2-(4-Tolyl-1,2,3-triazol-1-yl)ethyl)piperidine] | 3.1 ± 0.8 µM |  | > 10 µM | > 10 µM | > 10 µM |  |
| COc1ccc2cc(-c3cn(CCN4CCCCC4)nn3)ccc2c1 [PPRD6, 1-(2-(4-(6-Methoxynaphthalen-2-yl)-1H-1,2,3-triazol-1-yl)ethyl)piperidine] | > 10 µM |  | > 10 µM | > 10 µM | > 10 µM |  |
| Nc1ccc(-c2cn(CCN3CCCCC3)nn2)cc1 [PPRD8, 1-(2-(4-Aminophenyl-1,2,3-triazol-1-yl)ethyl)piperidine] | 2.9 µM | competitive antagonist |  | 39 µM |  | Kd (α4β2-nAChRs; [5]): >10 µM |
| Nc1ncnc2c1ncn2Cc1cn(CCN2CCCCC2)nn1 [PPRD10, 9-((1-(2-(Piperidin-1-yl)ethyl)-1,2,3-triazol-4-yl)methyl)-purin-6-amine] | > 10 µM |  | > 10 µM | > 10 µM | > 10 µM | Kd (α7-nAChRs; [6]): 11.6 µM; Kd (α7-nAChRs; [7]): 18.9 µM |
| COC(=O)c1ccc2[nH]cc(-c3cn(CCN4CCCCC4)nn3)c2c1 [PPRD11, Methyl 3-(1-(2-(piperidin-1-yl)ethyl)-1H-1,2,3-triazol-4-yl)-1H-indole-5-carboxylate] |  |  | 6.5 ± 1.7 µM | > 10 µM | > 10 µM | Functional properties at α4β2-nAChRs (agonist / antagonist, type) (α4β2-nAChRs): α4β2-nAChR antagonists; also recorded: competitive antagonist; Kd (α7-nAChRs; [6]): 6.6 ± 2.2 µM; Functional properties at α7-nAChRs (agonist / antagonist) (α7-nAChRs): weak and non-selective α7-nAChR antagonists; Kd (α7-nAChRs; [7]): 6.6 ± 1.7 µM |
| Clc1ccc(-c2cn(CCN3CCCCC3)nn2)cc1 [PPRD13, 1-(2-(4-(4-Chlorophenyl)-1,2,3-triazol-1-yl)ethyl)piperidine] | 17.6 ± 4.6 µM |  | > 10 µM | > 10 µM | > 10 µM | Functional properties at α7-nAChRs (agonist / antagonist) (α7-nAChRs): partial agonists |
| COc1ccc(-c2cn(C3CN4CCC3CC4)nn2)cc1 (centres unmarked) [QND3, 3-(4-(4-Methoxyphenyl)-1,2,3-triazol-1-yl)quinuclidine] | 0.1 µM | 5HT3A receptor agonist properties |  |  |  | Kd (α4β2-nAChRs; [8]): > 10 µM; EC50 (5HT3A receptors): 5.7 ± 1.7 µM |
| Cc1ccc(-c2cn(C3CN4CCC3CC4)nn2)cc1 (centres unmarked) [QND4, 3-(4-Tolyl-1,2,3-triazol-1-yl)quinuclidine] | 0.2 µM | antagonists and 5HT3A antagonist properties and mix-competitive antagonist |  |  |  | Kd (α4β2-nAChRs; [5]): >10 µM; Antagonist KA ± SD, 5HT3A (5HT3A receptors; competitive antagonist (^C), >10 = did not pass initial screen, vs 5-HT): 0.50 ± 0.27^C, μM; Antagonist KA ± SD, 5HT3A, non-competitive (5HT3A receptors; non-competitive antagonist (^NC)): 0.53 ± 0.18^NC μM |
| O=Cc1c[nH]c2ccc(-c3cn(C4CN5CCC4CC5)nn3)cc12 (centres unmarked) [QND5, 5-(1-(Quinuclidin-3-yl)-1,2,3-triazol-4-yl)-indole-3-carbaldehyde] | 0.27 µM |  |  |  | 0.16 ± 0.04 µM | Kd (α4β2-nAChRs; [8]): > 10 µM |
| c1ccc(-c2ccc(-c3cn(C4CN5CCC4CC5)nn3)cc2)cc1 (centres unmarked) [QND7, 3-(4-(Biphenyl-4-yl)-1,2,3-triazol-1-yl)quinuclidine] |  |  |  | > 10 µM | > 10 µM | Kd (α4β2-nAChRs; [8]): > 10 µM; Kd (α7-nAChRs; Antagonist KA ± SD, α7, competitive antagonist (^C), >10 = did not pass initial screen, vs (±)-epibatidine): 6.7 ± 2.5 µM; Functional properties at α7-nAChRs (agonist / antagonist) (α7-nAChRs): antagonistic properties; also recorded: weak α7-nAChR antagonist; Kd (α7-nAChRs; [7]): 26 ± 10 µM |
| Nc1ncnc2c1ncn2Cc1cn(C2CN3CCC2CC3)nn1 (centres unmarked) [QND10, 9-((1-(Quinuclidin-3-yl)-1,2,3-triazol-4-yl)methyl)-purin-6-amine] | 29.5 µM and 30 µM |  |  | > 10 µM | > 10 µM | Kd (α4β2-nAChRs; [8]): > 10 µM |
| COC(=O)c1ccc2[nH]cc(-c3cn(C4CN5CCC4CC5)nn3)c2c1 (centres unmarked) [QND11, Methyl 3-(1-(quinuclidin-3-yl)-1,2,3-triazol-4-yl)-indole-5-carboxylate] | 1.61 ± 0.36 µM | antagonists; also recorded: non-competitive antagonist |  |  |  | Kd (α4β2-nAChRs; [8]): 9.3 ± 4.3 µM; Functional properties at α4β2-nAChRs (agonist / antagonist, type) (α4β2-nAChRs): competitive antagonism; Kd (α4β2-nAChRs; read-out: Antagonist KA ± SD, α4β2, non-competitive): 37 ± 22 µM; Kd (5HT3A receptors; non-competitive antagonist (^NC), read-out: Antagonist KA ± SD, 5HT3A, non-competitive): 0.08 ± 0.01 µM |
